Experimental data published in patent publication US20120021079A1, “Garcinia Mangostana L. and Iridoid Based Formulations” (priority 2010, published 2012).

Legend:
E. coli PQ37 [1] = test: Anti-genotoxicity test (SOS-chromotest with 4NQO, Example Three); assay type: cell-based; settings: for induction factor of 4NQO plus iridoid versus vehicle blank: 250 μg mL^−1 iridoid plus 1.25 μg mL^−1 4NQO; for Induction factor: 250 μg ml^−1 DAA or AA together with 1.25 μg ml^−1 4NQO, E. coli PQ37
Experimental: The primary DNA damage test was performed again, similar to the method described above. […] Induction factors were calculated in the same manner as described above.

[2] = Intra- and inter-day precision and stability assays of iridoids by HPLC-PDA; assay type: physicochemical; settings: 3 consecutive days, HPLC sample solutions
Experimental: The limits of detection (LOD) and quantitation (LOQ) were defined as the lowest concentrations of analytes in a sample that can be detected and quantified. These LOD and LOQ limits were determined on the basis of signal-to-noise ratios (S/N) of 3:1 and 10:1, respectively. The working solutions of standards 1 and 2 for LOD and LOQ were prepared by diluting them sequentially. The intra- and inter-day precision assays, as well as stability tests were performed by following the method applied to the sample analysis for 3 consecutive days. Accuracy of the method (recovery) was assessed by the recovery percentage of iridoids 1 and 2 in the spiked samples. […] The recovery percentage was calculated using the ratio of concentration detected (actual) to those spiked (theoretical). Variation was evaluated by the relative standard deviation (RSD) of triplicate injections in the HPLC experiments.
The limits of detection (LOD) and quantitation (LOQ) were defined as the lowest concentrations of analytes in a sample that can be detected and quantified. These LOD and LOQ limits were determined on the basis of signal-to-noise ratios (S/N) of 3:1 and 10:1, respectively. […] Repeatability is the degree of agreement between results, when experimental conditions are maintained as constant as possible, and is expressed as the relative standard deviation (RSD) of replicates. […]

E. coli PQ37 [3] = assay type: cell-based; settings: 250 ug mL^−1 iridoid plus 1.25 ug mL^−1 4NQO; blank = 1
Experimental: The SOS-chromotest in E. coli PQ37 was used to determine the potential for iridoids in noni fruit from French Polynesia to prevent primary DNA damage. […] Replicate samples were evaluated. […] Following incubation with the samples, 5-bromo-4-chloro-3-indolyl-β-D-galactopyranoside was added to the wells to detect β-galactosidase enzyme activity, which is induced during SOS repair of damaged DNA. The samples were again incubated for 90 minutes and the absorbances of the samples, blank and positive control were measured at 620 nm with a microplate reader. The β-galactosidase enzyme activity induction factor of each material was calculated by dividing the absorbance of the sample at 620 nm by that of the blank, while also correcting for cell viability.

| SMILES | induction factor of 4NQO plus iridoid versus vehicle blank (E. coli PQ37 [1]) | Induction factor (E. coli PQ37 [1]) | stability during investigation period [2] | induction factor (mean±standard deviation) (E. coli PQ37 [3]) |
| --- | --- | --- | --- | --- |
| CC(=O)OCC1=C[C@H](O)[C@@H]2C(C(=O)O)=CO[C@@H](O[C@@H]3O[C@H](CO)[C@@H](O)[C@H](O)[C@H]3O)[C@H]12 [AA, asperulosidic acid] | no statistical difference from that of the vehicle blank | 1.06 ± 0.03 | stable during investigation period |  |
| O=C(O)C1=CO[C@@H](O[C@@H]2O[C@H](CO)[C@@H](O)[C@H](O)[C@H]2O)[C@@H]2C(CO)=C[C@H](O)[C@H]12 [DAA, deacetylasperulosidic acid] | no statistical difference from that of the vehicle blank | 1.08 ± 0.12 | stable during investigation period | 0.98±0.02 |
